Laboratory results taken from publication PMC11115308 (Biochemical pharmacology, 2023).

Experiments:
CXCR4 [1] = target: T1, CXCR4 (Homo sapiens, UniProt P61073); experiment: β-Arrestin-2 recruitment in Tango CXCR4-bla U2OS cells; format: cell-based; details: antagonist at 1 μM
CXCR4 [2] = target: T1, CXCR4; format: cell-based; details: log value

T1 sequence (P61073 whole entry): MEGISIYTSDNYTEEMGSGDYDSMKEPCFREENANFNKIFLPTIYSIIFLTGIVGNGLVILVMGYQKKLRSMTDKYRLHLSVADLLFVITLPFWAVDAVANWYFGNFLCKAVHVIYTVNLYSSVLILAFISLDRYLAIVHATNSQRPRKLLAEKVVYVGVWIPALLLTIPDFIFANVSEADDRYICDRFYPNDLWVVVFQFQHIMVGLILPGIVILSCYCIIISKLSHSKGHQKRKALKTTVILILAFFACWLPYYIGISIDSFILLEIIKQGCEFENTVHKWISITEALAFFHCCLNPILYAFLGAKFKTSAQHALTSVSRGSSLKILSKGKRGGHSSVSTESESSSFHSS

| Molecule | effect on CXCL12 β-arrestin response (CXCR4 [1]) | inhibition of forskolin-stimulated cAMP production log IC50 (CXCR4 [2]) [M] |
| --- | --- | --- |
| c1cc(CN2CCCNCCNCCCNCC2)ccc1CN1CCCNCCNCCCNCC1 [AMD3100] | abolishes CXCL12 β-arrestin response | – |
| CXCL12: C-X-C Motif Chemokine Ligand 12, chemokine that binds CXCR4; endogenous ligand | – | −8.9 ± 0.1 |
